What all share (assay): area under growth-rate inhibition curve (AUC GRI) (dimensionless (GR-based AUC)); higher = less growth inhibition
Common to all, as to conditions: exposure time: 72 h; concentrations: 0.1, 1, 10 uM

One experiment concerns BT474-LTR. Summed up:
(§1)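 Six breast cancer cell line models (two triple-negative lines, plus parental and lapatinib + trastuzumab-resistant HER2+ lines) were plated at optimised log-phase densities and exposed to compound at 0.1, 1 or 10 µM for 72 h. Cells were fixed in 4% paraformaldehyde, and nuclei were stained with Hoechst 33342 or DAPI, imaged and counted. Area under the growth-rate inhibition curve came from 2 biological replicates, with growth corrected using Day 0 plates, untreated Day 3 plates and DMSO controls.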

In the next experiment the test system is SKBR3-LTR. The method, boiled down:
as §1

A further experiment relates to MDA-MB-231. The method, boiled down:
as §1

Another experiment deals with BT474-P. The method, boiled down:
as §1

The next experiment has as its system MDA-MB-468. The method, boiled down:
as §1

The next experiment has as its system SKBR3-P. The method, boiled down: as §1

These results are taken from the supplement of paper PMC9763283.

Turning to `CCCN[C@H]1CCc2nc(N)sc2C1` [Pramipexole], the “area under growth-rate inhibition curve” value stood at 1.1 with BT474-LTR; 1.08 in the experiment with SKBR3-LTR; 1.03 with MDA-MB-231; 1.07 in the experiment with BT474-P; 1.05 with MDA-MB-468; 1.01 with SKBR3-P.

On to `CC(=O)Oc1cc2c(s1)CCN(C(C(=O)C1CC1)c1ccccc1F)C2` (stereo not drawn) [Prasugrel], for which the “area under growth-rate inhibition curve” value in the experiment with BT474-LTR was found to be 1.13; with SKBR3-LTR, 1.03; in the experiment with MDA-MB-231 it was 1.03; in the experiment with BT474-P, 1.05; with MDA-MB-468, 1.04; with SKBR3-P, 1.02.

In the case of `CC(=O)[C@H]1CC[C@H]2[C@@H]3CC=C4C[C@@H](O)CC[C@]4(C)[C@H]3CC[C@]12C` [Pregnenolone], the “area under growth-rate inhibition curve” value came out at 1.09 in the experiment with BT474-LTR; 1.05 in the experiment on SKBR3-LTR; 1.03 with MDA-MB-231; 1.02 in the experiment on BT474-P; 1.02 in the experiment with MDA-MB-468; 0.999 in the experiment on SKBR3-P.

As to `CCC1(c2ccccc2)C(=O)NCNC1=O` [Primidone], the “area under growth-rate inhibition curve” value in the experiment with BT474-LTR is 1.02; in the experiment on SKBR3-LTR, 1.06; in the experiment with MDA-MB-231, 1.04; with BT474-P, 0.982; in the experiment with MDA-MB-468 it was 1.03; with SKBR3-P, 1.03.

Regarding `CC(C)NCC(O)COc1cccc2ccccc12.[Cl-].[H+]` (stereo not drawn) [Propranolol HCl], the “area under growth-rate inhibition curve” value in the experiment on BT474-LTR came out at 1.1; with SKBR3-LTR it was 1.06; in the experiment on MDA-MB-231, 1.04; with BT474-P, 1.11; in the experiment on MDA-MB-468, 1.03; with SKBR3-P, 1.01.

With `COCCCN1CCC(NC(=O)c2cc(Cl)c(N)c3c2OCC3)CC1` [Prucalopride], the “area under growth-rate inhibition curve” value with BT474-LTR was 1.07; with SKBR3-LTR, 1.06; in the experiment on MDA-MB-231, 1.05; with BT474-P it was 1.02; with MDA-MB-468, 1.04; with SKBR3-P, 1.01.

Turning to `CN(C)C(=O)Oc1ccc[n+](C)c1.[Br-]` [Pyridostigmine Bromide], the “area under growth-rate inhibition curve” value with BT474-LTR stood at 1.07; in the experiment with SKBR3-LTR, 1.04; with MDA-MB-231 it was 1.05; in the experiment on BT474-P it was 1.04; in the experiment with MDA-MB-468, 1.03; in the experiment on SKBR3-P, 0.997.

On to `O=C(O)C=CC(=O)O.OCCOCCN1CCN(C2=Nc3ccccc3Sc3ccccc32)CC1.OCCOCCN1CCN(C2=Nc3ccccc3Sc3ccccc32)CC1` [Quetiapine Fumarate], for which the “area under growth-rate inhibition curve” value with BT474-LTR stood at 1.07; in the experiment on SKBR3-LTR it was 1.07; in the experiment with MDA-MB-231 it was 1.02; in the experiment with BT474-P, 1.03; in the experiment on MDA-MB-468, 1.02; in the experiment on SKBR3-P, 1.04.

Regarding `CC(=O)SCC(Cc1ccccc1)C(=O)NCC(=O)OCc1ccccc1` (stereo not drawn) [Racecadotril], the “area under growth-rate inhibition curve” value in the experiment on BT474-LTR is 1.07; with SKBR3-LTR it was 1.08; in the experiment on MDA-MB-231, 1.02; in the experiment on BT474-P, 1.04; in the experiment on MDA-MB-468 it was 1.02; in the experiment on SKBR3-P, 1.01.

For the molecule `O=C(c1ccc(OCCN2CCCCC2)cc1)c1c(-c2ccc(O)cc2)sc2cc(O)ccc12.[Cl-].[H+]` [Raloxifene HCl], the “area under growth-rate inhibition curve” value with BT474-LTR is 0.931; in the experiment on SKBR3-LTR it was 0.996; in the experiment on MDA-MB-231 it was 0.957; with BT474-P, 0.82; with MDA-MB-468 it was 0.931; in the experiment on SKBR3-P, 0.996.

Turning to `CCC(=O)NCC[C@@H]1CCc2ccc3c(c21)CCO3` [Ramelteon], the “area under growth-rate inhibition curve” value in the experiment with BT474-LTR was found to be 1.1; in the experiment with SKBR3-LTR it was 1.06; with MDA-MB-231, 1.03; in the experiment with BT474-P, 1.05; with MDA-MB-468, 1.05; in the experiment with SKBR3-P, 1.03.

For the molecule `CN/C(=C\[N+](=O)[O-])NCCSCc1ccc(CN(C)C)o1` [Ranitidine], the “area under growth-rate inhibition curve” value stood at 1.1 in the experiment with BT474-LTR; 1.03 in the experiment on SKBR3-LTR; 1.01 in the experiment with MDA-MB-231; 1.07 in the experiment on BT474-P; 1.04 with MDA-MB-468; 1.03 in the experiment on SKBR3-P.

As for `c1nc2nc(Nc3ccc(N4CCOCC4)cc3)nc(NC3CCCCC3)c2[nH]1` [Reversine], the “area under growth-rate inhibition curve” value with BT474-LTR was 0.65; with SKBR3-LTR, 0.677; in the experiment on MDA-MB-231, 0.689; in the experiment with BT474-P, 0.648; in the experiment on MDA-MB-468, 0.643; in the experiment on SKBR3-P it was 0.662.

`Cc1c(C(=O)NN2CCCCC2)nn(-c2ccc(Cl)cc2Cl)c1-c1ccc(Cl)cc1` [Rimonabant]: the “area under growth-rate inhibition curve” value with BT474-LTR worked out at 1.07; in the experiment on SKBR3-LTR, 1.04; with MDA-MB-231, 1; in the experiment on BT474-P it was 0.979; in the experiment with MDA-MB-468, 0.987; in the experiment on SKBR3-P it was 0.953.

As for `CC(NCCc1ccc(O)cc1)C(O)c1ccc(O)cc1.[Cl-].[H+]` (stereo not drawn) [Ritodrine HCl], the “area under growth-rate inhibition curve” value came to 1.1 with BT474-LTR; 1.11 in the experiment with SKBR3-LTR; 0.975 in the experiment with MDA-MB-231; 1.07 in the experiment on BT474-P; 1.01 in the experiment on MDA-MB-468; 1.02 in the experiment on SKBR3-P.

In the case of `CCN(C)C(=O)Oc1cccc(C(C)N(C)C)c1.O=C(O)C(O)C(O)C(=O)O` (stereo not drawn) [Rivastigmine Tartrate], the “area under growth-rate inhibition curve” value was determined as 1.07 in the experiment with BT474-LTR; 1.06 in the experiment on SKBR3-LTR; 1.03 in the experiment on MDA-MB-231; 1.06 in the experiment on BT474-P; 1.04 with MDA-MB-468; 1.02 in the experiment with SKBR3-P.

In the case of `C=CC[N+]1(C2CC3C4CCC5CC(O)C(N6CCOCC6)CC5(C)C4CCC3(C)C2OC(C)=O)CCCC1.[Br-]` (stereo not drawn) [Rocuronium Bromide], the “area under growth-rate inhibition curve” value in the experiment on BT474-LTR was 1.1; in the experiment with SKBR3-LTR, 1.05; in the experiment on MDA-MB-231, 1.02; in the experiment with BT474-P it was 1.07; in the experiment with MDA-MB-468 it was 1.03; in the experiment with SKBR3-P, 1.03.

Regarding `O=C(Nc1c(Cl)cncc1Cl)c1ccc(OC(F)F)c(OCC2CC2)c1` [Roflumilast], the “area under growth-rate inhibition curve” value in the experiment with BT474-LTR is 1.05; with SKBR3-LTR it was 1.07; in the experiment on MDA-MB-231, 0.966; in the experiment on BT474-P it was 1.03; in the experiment with MDA-MB-468, 1.04; in the experiment on SKBR3-P, 1.01.

For the molecule `CCCN(CCC)CCc1cccc2c1CC(=O)N2` [Ropinirole], the “area under growth-rate inhibition curve” value worked out at 1.05 with BT474-LTR; 1.05 in the experiment with SKBR3-LTR; 1.03 in the experiment on MDA-MB-231; 0.994 with BT474-P; 1.06 in the experiment with MDA-MB-468; 1.02 in the experiment with SKBR3-P.

For `CCCN(CCc1cccs1)[C@H]1CCc2c(O)cccc2C1` [Rotigotine], the “area under growth-rate inhibition curve” value is 1.08 with BT474-LTR; 1.08 with SKBR3-LTR; 1.03 with MDA-MB-231; 1.05 with BT474-P; 0.992 with MDA-MB-468; 0.984 in the experiment on SKBR3-P.

In the case of `COc1cc2c(cc1OC)C1Cc3ccc(OC)c(OC)c3CN1CC2` (stereo not drawn) [Rotundine], the “area under growth-rate inhibition curve” value turned out to be 1.11 in the experiment with BT474-LTR; 1.04 in the experiment with SKBR3-LTR; 0.997 in the experiment with MDA-MB-231; 1.03 in the experiment on BT474-P; 1.02 in the experiment on MDA-MB-468; 0.992 with SKBR3-P.

On to `CC(=O)OCC(=O)NCCCOc1cccc(CN2CCCCC2)c1.[Cl-].[H+]` [Roxatidine Acetate HCl], for which the “area under growth-rate inhibition curve” value in the experiment with BT474-LTR was 1.07; in the experiment with SKBR3-LTR, 1.04; in the experiment on MDA-MB-231 it was 1.03; with BT474-P, 1.04; in the experiment on MDA-MB-468, 1.02; in the experiment on SKBR3-P it was 0.991.

For `Cc1cncc(CN2CCC(=C3c4ccc(Cl)cc4CCc4cccnc43)CC2)c1.O=C(O)/C=C/C(=O)O` [Rupatadine Fumarate], the “area under growth-rate inhibition curve” value with BT474-LTR amounted to 1.05; in the experiment on SKBR3-LTR, 1.03; in the experiment on MDA-MB-231, 1.05; in the experiment on BT474-P, 0.974; with MDA-MB-468, 0.972; with SKBR3-P, 0.966.
